{
  "source": "patent US20140065655A1",
  "about": "“SCREENING METHOD FOR SUBSTANCE ACTING ON MAINTENANCE OF EPITHELIAL PROPERTIES OF CELL” (SCIVAX CORPORATION, priority 2012, published 2014)",
  "key": {"N-cadherin": {"test_system": "N-cadherin", "assay": "qRT-PCR expression level of N-cadherin gene (mesenchymal marker) in A549 spheroids", "assay_type": "cell-based, human", "conditions": "A549, SB431542 10 μM with TGF-β2 5 ng/ml and TNF-α 10 ng/ml, sixth day, corrected by TBP (FIG. 7)", "method": "(§1) In order to verify whether or not a change in the morphology of the spheroid confirmed in the second example reflects an epithelial-mesenchymal transition and an epithelial-mesenchymal transition inhibition, a result of measuring an expression level of a gene that is known as an epithelial or mesenchymal marker through qRT-PCR is shown in FIGS. 6 to 9. The processes from (1) pre-incubation to (3) addition of the epithelial-mesenchymal transition inducer and inhibitor were carried out likewise the second example. Next, at the sixth day of the culturing, all RNAs were extracted from each sample using RNeasy Plus Mini Kit (made by QIAGEN corporation), and such RNAs having undergone reverse transcription using PrimeScript RT reagent Kit (made by TAKARABIO Inc.) were used for qRT-PCR. SYBER Premix Ex Tagll (made by TAKARABIO Inc.) was used for PCR. Moreover, Thermal Cycler Dice (made by TAKARABIO Inc.) was used for a reaction and a detection. Note that data is corrected by the expression level of internal standard gene (TBP), and is shown as a relative value when the expression level of the control is taken as 1."}, "E-cadherin": {"test_system": "E-cadherin", "assay": "qRT-PCR expression level of E-cadherin gene (epithelial marker) in A549 spheroids", "assay_type": "cell-based, human", "conditions": "A549, SB431542 10 μM with TGF-β2 5 ng/ml and TNF-α 10 ng/ml, sixth day, corrected by TBP (FIG. 6)", "method": "as §1"}, "[1]": {"test_system": "human-lung-cancer-cells derived strain A549", "assay": "Effect of epithelial-mesenchymal transition inhibitor on morphology and hypoxic area (LOX-1 red signal) of spheroids on NanoCulture plate", "assay_type": "cell-based", "method": "5-%-FBS-containing DMEM culture medium and 1.0-%-Matrigel (registered trademark) containing DMEM culture medium were added in respective wells of a cell culture vessels NanoCulture (registered trademark) plate (made by SCIVAX corporation, 384-well plate, material of concavity-convexity structure surface=polymethylpentene (TPX made by MITSUI Chemical Co., Ltd.), planar shape of concavo-convex structure=square, width between unit structures (line width)=700 nm, minimum internal diameter of unit structure=3 μm, and depth=1 μm) by 25 μl, and were subjected to centrifugal force for five minutes at 1000×g.\nA cell suspension having human-lung-cancer-cells derived strain A549 adjusted to 13.5×10^4 cells/ml by a 5-%-FBS-containing DMEM culture medium was added to each well of the above-explained plate by 25 μl (the number of cells was 3.4×10^3 cells/well, and the final concentration of the culture medium additive was 5% FBS and 0.5% Matrigel).\nAt the third day of the culturing, TGF-β2 (made by R&D systems corporation, 302-B2-002) and TNF-α (made by R&D systems corporation, 210-TA-010) which were epithelial-mesenchymal transition inducers were added to each well in such a way that a final concentration became 5 ng/ml and 10 ng/ml, respectively. While at the same time, SB431542 (made by Miltenyi Biotec corporation, 130-095-561) that was an inhibitor of TGF-β2 was added in such a way that a final concentration became 10 μM.\nDimethyl-sulfoxide was added to all wells where no SB431542 was added in such a way that a final concentration became 0.1%.\nAt the fifth day of the culturing, a hypoxic area detection reagent LOX-1 (made by SCIVAX corporation) was added to each well in such a way that a final concentration became 2 μM. LOX-1 is a reagent that contains iridium complex which emits red phosphorescence.\nAn observation through a fluorescent microscope was carried out at the sixth day of the culturing."}, "[2]": {"conditions": "A549, SB431542 10 μM with TGF-β2 5 ng/ml and TNF-α 10 ng/ml, LOX-1 2 μM, sixth day"}},
  "data": [
    {"smiles": "NC(=O)c1ccc(-c2nc(-c3ccc4c(c3)OCO4)c(-c3ccccn3)[nH]2)cc1", "note": "[SB431542]", "values": [
      {"measurement": "expression level of N-cadherin", "setting": "N-cadherin", "result": "decreased to substantially same level as that of the control"},
      {"measurement": "expression level of E-cadherin", "setting": "E-cadherin", "result": "~60 % of the control"},
      {"measurement": "morphology of spheroids (bright field image)", "setting": "[1]; A549, SB431542 10 μM with TGF-β2 5 ng/ml and TNF-α 10 ng/ml added at third day, observed sixth day, compared with well where no inhibitor was added", "result": "the collapse of spheroids were suppressed and the contours of the spheroids had a small concavity and convexity"},
      {"measurement": "red intensity and red area (hypoxic area, LOX-1, fluorescent field image)", "setting": "[1]; [2]", "result": "the red intensity was high and the red area was large"},
      {"measurement": "red signal (quantified, FIG. 5) relative to the well where no inhibitor was added", "setting": "[1]; [2]", "result": "about twice"}
    ]}
  ]
}
